The target in assay [1] is Tyrosine-protein kinase JAK1 (Homo sapiens) (UniProt P23458).
In assay [2] the target is T1, 3-phosphoinositide-dependent protein kinase 1 (Homo sapiens) (UniProt O15530).
T1 sequence (whole entry): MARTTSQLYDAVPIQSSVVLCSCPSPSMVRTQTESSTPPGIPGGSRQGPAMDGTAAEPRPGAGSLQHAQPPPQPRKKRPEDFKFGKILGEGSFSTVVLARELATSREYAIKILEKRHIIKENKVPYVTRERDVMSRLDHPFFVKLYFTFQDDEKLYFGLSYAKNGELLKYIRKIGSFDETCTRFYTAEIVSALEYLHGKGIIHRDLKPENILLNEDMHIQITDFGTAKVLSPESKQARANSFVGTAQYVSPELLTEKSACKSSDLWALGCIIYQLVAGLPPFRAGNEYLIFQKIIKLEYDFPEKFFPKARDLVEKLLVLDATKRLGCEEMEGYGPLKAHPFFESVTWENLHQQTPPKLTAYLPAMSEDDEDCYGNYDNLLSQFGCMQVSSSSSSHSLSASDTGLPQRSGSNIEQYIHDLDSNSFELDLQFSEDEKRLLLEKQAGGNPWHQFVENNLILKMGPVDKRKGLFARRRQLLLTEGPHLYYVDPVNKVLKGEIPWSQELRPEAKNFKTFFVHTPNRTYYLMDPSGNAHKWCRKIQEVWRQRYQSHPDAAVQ

The target of assay [3] is T2, Serine/threonine-protein kinase VRK1 (Homo sapiens) (UniProt Q99986).
T2 sequence (whole entry): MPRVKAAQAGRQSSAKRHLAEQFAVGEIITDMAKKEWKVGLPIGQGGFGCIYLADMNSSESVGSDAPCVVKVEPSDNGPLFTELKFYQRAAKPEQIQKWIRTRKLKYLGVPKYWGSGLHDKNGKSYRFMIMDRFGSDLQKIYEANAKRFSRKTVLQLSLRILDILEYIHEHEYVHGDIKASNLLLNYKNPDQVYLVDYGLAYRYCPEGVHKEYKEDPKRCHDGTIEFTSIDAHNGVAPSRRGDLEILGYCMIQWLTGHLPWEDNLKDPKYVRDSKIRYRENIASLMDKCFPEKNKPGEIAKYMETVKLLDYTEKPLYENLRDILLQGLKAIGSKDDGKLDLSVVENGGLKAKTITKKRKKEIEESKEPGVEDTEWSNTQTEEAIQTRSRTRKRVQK

In assay [4] the target is STE20-like serine/threonine-protein kinase (Homo sapiens) (UniProt Q9H2G2).
Assay [5] has as its target Serine/threonine-protein kinase pim-3 (Homo sapiens) (UniProt Q86V86).
Assay [6] addresses cAMP-dependent protein kinase catalytic subunit alpha (Homo sapiens) (UniProt P17612).
For assay [7], the target named is Serine/threonine-protein kinase PAK 5 (Homo sapiens) (UniProt Q9P286).
The target of assay [8] is T3, Serine/threonine-protein kinase Nek2 (Homo sapiens) (UniProt P51955).
T3 sequence (whole entry): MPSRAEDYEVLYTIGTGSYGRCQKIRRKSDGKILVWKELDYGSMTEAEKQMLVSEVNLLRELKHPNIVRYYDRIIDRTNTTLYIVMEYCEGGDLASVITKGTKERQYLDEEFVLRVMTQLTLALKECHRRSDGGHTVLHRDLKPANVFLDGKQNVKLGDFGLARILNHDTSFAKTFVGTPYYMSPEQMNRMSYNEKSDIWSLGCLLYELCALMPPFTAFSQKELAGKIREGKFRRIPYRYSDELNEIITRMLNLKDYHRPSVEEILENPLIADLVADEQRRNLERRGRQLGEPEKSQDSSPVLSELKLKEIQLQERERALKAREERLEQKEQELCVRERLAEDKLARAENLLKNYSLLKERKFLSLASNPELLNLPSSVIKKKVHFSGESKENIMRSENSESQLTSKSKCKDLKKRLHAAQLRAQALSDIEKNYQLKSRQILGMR

Assay [9] concerns the target Serine/threonine-protein kinase Chk2 (Homo sapiens, UniProt O96017).
Assay [10] concerns the target Mitogen-activated protein kinase 11 (Homo sapiens, UniProt Q15759).
Assay [11] concerns the target T4, Serine/threonine-protein kinase PLK4 (Homo sapiens) (UniProt O00444).
T4 sequence (whole entry): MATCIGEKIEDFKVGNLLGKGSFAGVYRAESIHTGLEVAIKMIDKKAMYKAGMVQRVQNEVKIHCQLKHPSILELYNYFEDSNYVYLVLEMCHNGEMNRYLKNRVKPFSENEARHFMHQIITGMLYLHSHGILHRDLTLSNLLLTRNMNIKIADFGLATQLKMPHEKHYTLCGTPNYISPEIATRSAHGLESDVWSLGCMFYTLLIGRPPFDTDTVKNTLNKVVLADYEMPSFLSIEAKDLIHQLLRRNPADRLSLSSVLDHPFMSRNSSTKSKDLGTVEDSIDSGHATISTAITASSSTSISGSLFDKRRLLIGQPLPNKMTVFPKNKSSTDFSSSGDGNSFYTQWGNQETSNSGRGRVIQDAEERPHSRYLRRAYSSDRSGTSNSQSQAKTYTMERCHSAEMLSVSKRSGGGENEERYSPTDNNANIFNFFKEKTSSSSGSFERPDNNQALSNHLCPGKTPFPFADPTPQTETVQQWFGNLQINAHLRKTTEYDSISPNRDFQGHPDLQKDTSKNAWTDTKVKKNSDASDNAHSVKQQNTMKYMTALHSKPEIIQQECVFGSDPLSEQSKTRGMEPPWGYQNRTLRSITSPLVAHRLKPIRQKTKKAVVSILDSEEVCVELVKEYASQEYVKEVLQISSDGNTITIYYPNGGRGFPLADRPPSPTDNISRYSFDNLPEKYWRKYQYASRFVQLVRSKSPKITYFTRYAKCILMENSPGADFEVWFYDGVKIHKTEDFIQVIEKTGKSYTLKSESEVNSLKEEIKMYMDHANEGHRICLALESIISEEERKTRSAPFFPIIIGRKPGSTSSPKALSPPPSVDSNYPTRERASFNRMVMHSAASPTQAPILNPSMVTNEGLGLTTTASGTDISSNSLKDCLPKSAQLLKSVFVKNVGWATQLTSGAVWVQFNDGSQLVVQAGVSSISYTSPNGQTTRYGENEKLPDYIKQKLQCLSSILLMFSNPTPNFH

Assay [12] addresses Serine/threonine-protein kinase PAK 4 (Homo sapiens) (UniProt O96013).

Structures are written as SMILES.

STE20-like serine/threonine-protein kinase (Homo sapiens), sequence (Q9H2G2 whole entry, looked up): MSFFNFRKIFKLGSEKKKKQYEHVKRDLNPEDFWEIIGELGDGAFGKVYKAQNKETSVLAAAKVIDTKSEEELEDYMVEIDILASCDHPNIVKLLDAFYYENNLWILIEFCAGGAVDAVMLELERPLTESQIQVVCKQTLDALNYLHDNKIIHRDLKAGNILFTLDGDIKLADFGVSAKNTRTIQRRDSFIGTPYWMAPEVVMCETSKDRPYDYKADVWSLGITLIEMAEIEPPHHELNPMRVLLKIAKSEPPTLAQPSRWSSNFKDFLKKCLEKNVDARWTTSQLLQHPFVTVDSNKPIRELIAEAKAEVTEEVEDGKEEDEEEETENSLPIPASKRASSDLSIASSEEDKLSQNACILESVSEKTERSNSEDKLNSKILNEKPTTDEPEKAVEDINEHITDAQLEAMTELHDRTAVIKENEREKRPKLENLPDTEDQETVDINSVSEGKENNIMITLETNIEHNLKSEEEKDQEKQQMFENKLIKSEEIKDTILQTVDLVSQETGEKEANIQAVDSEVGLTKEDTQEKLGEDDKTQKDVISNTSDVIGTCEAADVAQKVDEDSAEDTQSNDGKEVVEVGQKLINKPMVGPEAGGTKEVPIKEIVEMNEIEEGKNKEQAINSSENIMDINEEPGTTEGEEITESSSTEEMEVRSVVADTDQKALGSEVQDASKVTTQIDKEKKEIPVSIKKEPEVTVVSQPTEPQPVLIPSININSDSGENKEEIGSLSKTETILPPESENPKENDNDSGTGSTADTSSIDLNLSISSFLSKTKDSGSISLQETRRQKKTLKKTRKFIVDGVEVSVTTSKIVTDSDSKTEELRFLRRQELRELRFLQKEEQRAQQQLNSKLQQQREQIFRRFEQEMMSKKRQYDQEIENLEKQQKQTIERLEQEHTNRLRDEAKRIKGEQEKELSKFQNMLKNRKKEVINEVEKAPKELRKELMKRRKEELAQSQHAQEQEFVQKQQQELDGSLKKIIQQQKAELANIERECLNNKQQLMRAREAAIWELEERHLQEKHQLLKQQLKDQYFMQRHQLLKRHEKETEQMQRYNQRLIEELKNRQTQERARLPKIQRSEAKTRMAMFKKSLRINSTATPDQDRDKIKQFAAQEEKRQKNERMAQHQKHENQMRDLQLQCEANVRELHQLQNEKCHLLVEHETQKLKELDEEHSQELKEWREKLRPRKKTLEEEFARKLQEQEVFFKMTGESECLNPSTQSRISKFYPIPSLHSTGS
Serine/threonine-protein kinase Chk2, sequence (O96017 whole entry): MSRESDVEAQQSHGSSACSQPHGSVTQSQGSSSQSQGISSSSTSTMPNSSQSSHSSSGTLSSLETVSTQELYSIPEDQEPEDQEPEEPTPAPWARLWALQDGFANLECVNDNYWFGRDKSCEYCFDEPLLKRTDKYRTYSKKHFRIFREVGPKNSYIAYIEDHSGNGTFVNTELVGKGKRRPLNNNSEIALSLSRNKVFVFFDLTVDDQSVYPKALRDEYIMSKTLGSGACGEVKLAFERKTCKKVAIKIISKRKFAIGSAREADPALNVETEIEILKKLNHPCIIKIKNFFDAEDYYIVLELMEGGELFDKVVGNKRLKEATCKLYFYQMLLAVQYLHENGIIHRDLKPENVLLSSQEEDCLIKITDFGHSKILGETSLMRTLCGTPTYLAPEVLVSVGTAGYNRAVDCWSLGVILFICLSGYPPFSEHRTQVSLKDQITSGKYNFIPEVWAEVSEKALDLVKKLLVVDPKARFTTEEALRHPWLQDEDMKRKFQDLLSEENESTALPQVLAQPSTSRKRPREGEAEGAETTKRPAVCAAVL
Serine/threonine-protein kinase PAK 5 (Homo sapiens), sequence (Q9P286 whole entry, looked up): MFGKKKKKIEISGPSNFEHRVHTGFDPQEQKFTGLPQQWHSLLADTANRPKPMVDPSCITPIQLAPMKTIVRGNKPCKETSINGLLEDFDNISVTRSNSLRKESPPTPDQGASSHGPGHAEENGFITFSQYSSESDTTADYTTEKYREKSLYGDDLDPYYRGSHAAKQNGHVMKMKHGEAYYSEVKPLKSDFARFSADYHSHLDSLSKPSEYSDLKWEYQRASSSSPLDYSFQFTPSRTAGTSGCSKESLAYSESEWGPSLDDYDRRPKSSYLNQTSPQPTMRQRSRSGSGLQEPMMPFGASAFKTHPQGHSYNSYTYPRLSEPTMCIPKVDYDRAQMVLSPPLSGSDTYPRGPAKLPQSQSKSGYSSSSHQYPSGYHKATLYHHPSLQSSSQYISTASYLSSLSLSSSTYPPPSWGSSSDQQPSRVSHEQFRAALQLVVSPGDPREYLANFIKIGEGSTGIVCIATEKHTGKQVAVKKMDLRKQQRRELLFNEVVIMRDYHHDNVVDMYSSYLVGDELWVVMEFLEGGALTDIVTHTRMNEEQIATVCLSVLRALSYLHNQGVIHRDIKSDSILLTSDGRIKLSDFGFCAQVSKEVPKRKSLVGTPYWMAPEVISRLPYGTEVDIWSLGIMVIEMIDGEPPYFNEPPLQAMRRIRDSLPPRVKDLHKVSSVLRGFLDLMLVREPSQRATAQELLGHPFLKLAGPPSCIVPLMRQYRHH
Tyrosine-protein kinase JAK1 (Homo sapiens), sequence (P23458 whole entry): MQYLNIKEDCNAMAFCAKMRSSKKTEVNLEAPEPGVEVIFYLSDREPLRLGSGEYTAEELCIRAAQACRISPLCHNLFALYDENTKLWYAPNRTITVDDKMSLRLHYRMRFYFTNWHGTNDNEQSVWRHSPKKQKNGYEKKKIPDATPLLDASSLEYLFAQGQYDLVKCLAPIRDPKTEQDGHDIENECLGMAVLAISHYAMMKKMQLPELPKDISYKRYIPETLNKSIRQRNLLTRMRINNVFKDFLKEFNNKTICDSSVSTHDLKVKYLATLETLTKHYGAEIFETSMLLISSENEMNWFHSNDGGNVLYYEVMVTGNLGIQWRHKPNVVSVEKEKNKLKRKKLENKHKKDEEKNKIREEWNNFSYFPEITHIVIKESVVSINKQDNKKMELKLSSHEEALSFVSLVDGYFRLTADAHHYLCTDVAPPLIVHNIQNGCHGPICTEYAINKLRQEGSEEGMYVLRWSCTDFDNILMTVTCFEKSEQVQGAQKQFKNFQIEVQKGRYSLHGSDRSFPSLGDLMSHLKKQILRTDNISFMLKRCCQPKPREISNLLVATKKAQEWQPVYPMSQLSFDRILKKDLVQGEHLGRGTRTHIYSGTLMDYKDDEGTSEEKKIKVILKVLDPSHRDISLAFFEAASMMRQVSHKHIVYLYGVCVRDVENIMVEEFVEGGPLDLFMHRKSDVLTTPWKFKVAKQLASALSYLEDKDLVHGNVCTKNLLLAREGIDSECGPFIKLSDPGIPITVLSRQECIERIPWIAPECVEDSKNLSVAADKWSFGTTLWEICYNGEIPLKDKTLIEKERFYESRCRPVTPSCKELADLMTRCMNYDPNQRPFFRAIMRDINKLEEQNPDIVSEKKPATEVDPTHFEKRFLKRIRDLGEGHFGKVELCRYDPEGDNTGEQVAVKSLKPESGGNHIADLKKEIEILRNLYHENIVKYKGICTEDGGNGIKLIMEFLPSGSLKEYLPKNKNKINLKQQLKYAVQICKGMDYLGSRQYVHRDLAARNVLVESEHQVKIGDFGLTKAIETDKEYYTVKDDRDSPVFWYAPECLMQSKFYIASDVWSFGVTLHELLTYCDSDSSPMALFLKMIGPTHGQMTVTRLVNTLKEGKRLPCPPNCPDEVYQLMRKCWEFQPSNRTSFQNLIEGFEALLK
Serine/threonine-protein kinase PAK 4 (Homo sapiens), sequence (O96013 whole entry, looked up): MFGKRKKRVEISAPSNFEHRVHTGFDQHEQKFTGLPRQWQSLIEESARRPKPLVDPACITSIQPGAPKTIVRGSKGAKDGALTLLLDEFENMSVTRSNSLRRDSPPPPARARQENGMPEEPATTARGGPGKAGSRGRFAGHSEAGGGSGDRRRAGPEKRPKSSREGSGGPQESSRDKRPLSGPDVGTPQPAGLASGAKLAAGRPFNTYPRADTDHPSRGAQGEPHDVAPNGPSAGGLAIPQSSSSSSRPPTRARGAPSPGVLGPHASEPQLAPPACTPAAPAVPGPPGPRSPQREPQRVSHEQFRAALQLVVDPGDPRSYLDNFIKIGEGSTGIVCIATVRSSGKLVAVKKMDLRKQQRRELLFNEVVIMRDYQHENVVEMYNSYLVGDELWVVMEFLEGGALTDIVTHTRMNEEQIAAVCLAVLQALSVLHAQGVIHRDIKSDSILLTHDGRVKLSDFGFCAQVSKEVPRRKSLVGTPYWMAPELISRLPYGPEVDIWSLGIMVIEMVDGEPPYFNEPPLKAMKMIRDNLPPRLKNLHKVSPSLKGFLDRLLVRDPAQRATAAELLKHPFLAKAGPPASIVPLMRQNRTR
Mitogen-activated protein kinase 11, sequence (Q15759 whole entry): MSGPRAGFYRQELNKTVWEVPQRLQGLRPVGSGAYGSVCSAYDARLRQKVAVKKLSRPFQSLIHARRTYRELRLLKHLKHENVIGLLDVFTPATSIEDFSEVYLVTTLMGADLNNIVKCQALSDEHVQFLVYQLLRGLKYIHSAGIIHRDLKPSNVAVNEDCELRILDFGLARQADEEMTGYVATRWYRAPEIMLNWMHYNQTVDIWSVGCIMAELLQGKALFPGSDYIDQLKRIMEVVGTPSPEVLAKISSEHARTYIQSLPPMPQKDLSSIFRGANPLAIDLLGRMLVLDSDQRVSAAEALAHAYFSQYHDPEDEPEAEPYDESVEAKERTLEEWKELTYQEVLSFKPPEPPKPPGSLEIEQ

As a reminder, the ΔTm is the change in melting temperature against a reference sample. On to `O=C1NC(=O)c2c1c1c3ccccc3n3c1c1c2c2ccccc2n1C1CCC3O1`, for which the ΔTm in assay [1] was -0.2 °C; in assay [2], -0.1 °C; in assay [3], -0.1 °C; in assay [4] it was 0.1 °C; in [5], 7.3 °C; in assay [6], 0.3 °C. The ΔTm in assay [7] was 2.4 °C; in [8] it was 0.3 °C; in assay [9], 3.9 °C; in assay [10], -0.1 °C; in assay [11], 0 °C; in assay [12] it was 2.8 °C.

Turning to `CN(C)CCCn1cc(C2=C(c3c[nH]c4ccccc34)C(=O)NC2=O)c2ccccc21` [GF-109203], the ΔTm in assay [1] is 1.5 °C; in assay [2], -0.2 °C; in assay [3], 0.2 °C; in assay [4], 6.8 °C; in [5], 9.1 °C; in assay [6], 3.6 °C. The ΔTm is 1 °C in assay [7]; 0.7 °C in assay [8]; 7.1 °C in assay [9]; 0.7 °C in assay [10]; 3 °C in [11]; 2.5 °C in assay [12].

`N#CC(C#N)=Cc1ccc(O)c(O)c1` [TYRPHOSTIN 23]: the ΔTm is 0.1 °C in [1]; 0.2 °C in assay [2]; 0.1 °C in assay [3]; 0.6 °C in assay [4]; 1.6 °C in assay [5]; 0.6 °C in assay [6]. Also, the ΔTm in assay [7] is 0.5 °C; in assay [8], 1.2 °C; in assay [9] it was 0.7 °C; in [10], 0.3 °C; in assay [11], 0.7 °C; in assay [12], -0.1 °C.

Take `O=C1Cc2c([nH]c3ccc(Br)cc23)-c2ccccc2N1` [KENPAULLONE]: the ΔTm in [1] is 1.7 °C; in [2], -0.8 °C; in [3], -0.1 °C; in [4], 1.7 °C; in assay [5] it was 4.6 °C; in assay [6], 1 °C. Further, the ΔTm in assay [7] worked out at 3.5 °C; in assay [8], 1.3 °C; in [9] it was 6.1 °C; in assay [10] it was 0.2 °C; in [11], 7.1 °C; in assay [12], 3.4 °C.

With `COc1cc(O)c2c(c1)oc(=O)c1c3cc(O)c(O)cc3oc21` [WEDELOLACTONE], the ΔTm was 2.2 °C in assay [1]; -0.4 °C in assay [2]; 0 °C in assay [3]; 1.3 °C in assay [4]; 5.9 °C in [5]; 2.3 °C in assay [6]. For the same molecule, the ΔTm is -0.3 °C in assay [7]; 2 °C in assay [8]; 1.8 °C in assay [9]; 1.5 °C in assay [10]; 2.9 °C in assay [11]; 1.6 °C in assay [12].

These data come from ChEMBL document CHEMBL1145498, “A systematic interaction map of validated kinase inhibitors with Ser/Thr kinases” (Proc Natl Acad Sci U S A, 2007).
